Reference: the supplement of paper PMC5579334
± gives the standard deviation of the averaged measurements.

Columns and labels:
[1] = tested on: HSC1 (primary human Schwann cells); experiment: drug sensitivity score (DSS, CellTiter-Glo viability, 72 h) (DSS (dimensionless)); higher = more sensitive; extreme values may be limits of the assay
Summary of the method: (§1)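 After seeding 750–1000 cells per well of MPNST cell lines or primary human Schwann cells into 384-well plates preprinted with each compound at five concentrations in 10-fold steps, plates were kept 72 h at 37 °C, 5% CO2. Viability was read as CellTiter-Glo ATP luminescence relative to vehicle and positive-control wells, with duplicates averaged where present. The data were fitted with four-parameter logistic models. Drug sensitivity score and relative IC50, censored at the top concentration, derive from the fits, and percent inhibition refers to the top concentration.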

[2] = tested on: HSC2 (primary human Schwann cells); experiment: as above
Summary of the method: as §1

S1507-2 [3] = experiment: as above
Summary of the method: as §1

S462 [4] = experiment: as above
Summary of the method: as §1

ST8814 [5] = experiment: as above
Summary of the method: as §1

STS26T [6] = experiment: as above
Summary of the method: as §1

[7] = tested on: HSC1 (primary human Schwann cells); experiment: drug sensitivity score (DSS, CellTox-Green cytotoxicity, 72 h) (DSS (dimensionless)); higher = more cytotoxic; extreme values may be limits of the assay
Summary of the method: (§2)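 For 72 h at 37 °C, MPNST cell lines and primary human Schwann cells were exposed in 384-well plates to five 10-fold compound dilutions. CellTox-Green, added before seeding at a final 1:1000 dilution, gave fluorescence from DNA released by disrupted cells. Signals were scaled to vehicle and positive-control wells, cultures failing plate quality control were left out, and four-parameter logistic fits were applied. Relative IC50 and drug sensitivity score were derived from the fits, with IC50 censored at the top concentration.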

[8] = tested on: HSC2 (primary human Schwann cells); experiment: as above
Summary of the method: as §2

S1507-2 [9] = experiment: as above
Summary of the method: as §2

ST8814 [10] = experiment: as above
Summary of the method: as §2

STS26T [11] = experiment: as above
Summary of the method: as §2

[12] = tested on: HSC1 (primary human Schwann cells); experiment: % inhibition of CellTiter-Glo viability at highest tested concentration (72 h), relative to DMSO and benzethonium chloride controls; higher = more inhibition
Summary of the method: as §1

[13] = tested on: HSC2 (primary human Schwann cells); experiment: as above
Summary of the method: as §1

S1507-2 [14] = experiment: as above
Summary of the method: as §1

S462 [15] = experiment: as above
Summary of the method: as §1

ST8814 [16] = experiment: as above
Summary of the method: as §1

STS26T [17] = experiment: as above
Summary of the method: as §1

Structure (SMILES)	drug sensitivity score [1]	drug sensitivity score [2]	drug sensitivity score (S1507-2 [3])	drug sensitivity score (S462 [4])	drug sensitivity score (ST8814 [5])	drug sensitivity score (STS26T [6])	drug sensitivity score [7]	drug sensitivity score [8]	drug sensitivity score (S1507-2 [9])	drug sensitivity score (ST8814 [10])	drug sensitivity score (STS26T [11])	% inhibition [12] [%]	% inhibition [13] [%]	% inhibition (S1507-2 [14]) [%]	% inhibition (S462 [15]) [%]	% inhibition (ST8814 [16]) [%]	% inhibition (STS26T [17]) [%]
CCNC(=O)c1noc(-c2cc(C(C)C)c(O)cc2O)c1-c1ccc(CN2CCOCC2)cc1 [NVP-AUY922] (max concentration tested 1000 nM)	21.6	22.6	20.5 ± 1.9	19.7 ± 3.3	19.4	18.3	19.6	20.4	20.6 ± 3.5	8.57	11.4	98.2	97.1	97.933 ± 0.086	98 ± 1.7	98.2	92.2
Cc1ccc([N+](=O)[O-])cc1S(=O)(=O)N(C)/N=C/c1cnc2ccc(Br)cn12 [PIK-75] (max concentration tested 10000 nM)	19.7	21.1	17.9 ± 1.9	21.2 ± 0.91	17.7	22.3	7.46	9.74	8.99 ± 6.5	5.5	14.6	91.1	95.4	97.021 ± 0.018	101.9 ± 0.78	89.1	102
CCCCCCCCCCCCCCCCCCOP(=O)([O-])OC1CC[N+](C)(C)CC1 [Perifosine aq/PBS] (max concentration tested 2500 nM)	0	0	0	0.0036 ± 0.0051	1.66	1.96	0	0	0	0.404	0.96	9.06	7.97	1.67 ± 4.5	9.85 ± 1.6	23.6	32.7
c1cc(CN2CCCNCCNCCCNCC2)ccc1CN1CCCNCCNCCCNCC1 [Plerixafor aq] (max concentration tested 10000 nM)	0	0	0	0	0	0	0	2.79	5.26 ± 3	0	0.908	-10.1	-6.48	-14.1 ± 20	-4.54 ± 3.1	4.25	3.99
COCC1(CO)C(=O)C2CCN1CC2 (stereo not drawn) [Prima-1 Met] (max concentration tested 10000 nM)	1.87	2.14	2.75 ± 3.9	1.58 ± 1.1	0	0.507	0	0	7.59 ± 11	0	0	26.3	32.4	6.31 ± 9.8	19.1 ± 8.4	8.31	14.6
N[C@@H](CSC(c1ccccc1)(c1ccccc1)c1ccccc1)C(=O)O [S-trityl-L-cysteine] (max concentration tested 40000 nM)	0.233	0	0	0.0379 ± 0.054	0	0.0666	0	0	0	0	0	14.8	-1.33	3.83 ± 4.3	8.17 ± 9.1	7.25	13
Cn1nnc2c(C(N)=O)ncn2c1=O [Temozolomide] (max concentration tested 10000 nM)	0	0	0.17 ± 0.24	0	0.0241	0	0	0	0	0	0	8.86	2.06	9.8 ± 9.4	2.61 ± 0.65	11.9	8.32
Oc1ncc(N(CCCl)CCCl)c(O)n1 [Uracil mustard] (max concentration tested 10000 nM)	0	0	0	0	0	0	0	0	0	0	0	5.98	5.29	-1.65 ± 8.9	-1.32 ± 0.75	10.8	1.52
CCCC(CCC)C(=O)O [Valproic acid aq] (max concentration tested 1000000 nM)	4.34	4.4	1.59 ± 0.097	2.44 ± 0.31	3.83	1.5	0	0	0	0.307	0	68.2	59	20.7 ± 3.2	31.3 ± 17	44.4	28.3
